Non-standard residues stand in square brackets, D forms with d. Residues, ends and D or L forms follow the SMILES beside them. NMeR = CN[C@@H](CCCNC(=N)N)C(=O)O; Nle = CCCC[C@H](N)C(=O)O

For one assay, the system named is MEC-1 cells. Put plainly: MEC-1 cell death (PCD) after 2 h peptide treatment. Type of assay: cell-based. Conditions: Table 4. As to the method: Then the peptides structures were tested via NMR and X-ray. The peptides were also tested for their activity on MEC-1 and their KDs and Retention times on LCMS were determined.
Assay [1] has as its target T1, CD47 (membrane preparation from MEC-1 cells) (Homo sapiens, UniProt Q08722).
T1 construct: MEC-1 cell membrane preparation were biotinylated with the EZ-Link NHS-PEG4-Biotin kit; endogenous in cells; host or cells: MEC-1 cells (membrane preparation)
Put plainly: Binding affinity by biolayer interferometry (Octet RED96) on biotinylated MEC-1 cell membrane preparation. Particulars: Table 5; apparent Kd; biolayer interferometry; read-out: Kd (BI). The method, then: The binding affinities of peptides for a membrane preparation from MEC-1 cells were measured by biolayer interferometry on an Octet RED96 System (Pall FortéBio Corp., Menlo Park, Calif.).
The binding affinities of peptides for a membrane preparation from MEC-1 cells were measured by biolayer interferometry on an Octet RED96 System (Pall FortéBio Corp., Menlo Park, Calif.). This system monitors interference of light reflected from two sources (an internal reflection surface and the liquid/solid interface of a fiber optic sensor) to measure the rate of binding of molecules to the biosensor surface.
MEC-1 cell membrane preparation were biotinylated with the EZ-Link NHS-PEG4-Biotin kit from Thermo-Scientific. Biotinylated membranes were then loaded onto SuperStreptavidin (SSA) biosensors (Pall FortéBio Corp.) at empirically determined concentrations.
In order to highlight the pharmacological properties of these peptides, a systematic SAR study by the development of a binding assay allowing to the assessment of the affinity of the 4N1K analogues to CD47 was initiated. […] An Ala-scan to identify the pharmacophores of 4N1K was implemented.
The binding affinities of peptides for a MEC-1 cells membrane preparation were measured by biolayer interferometry on an Octet RED96 System (Pall FortéBio Corp., Menlo Park, Calif.). This system monitors interference of light reflected from two sources (an internal reflection surface and the liquid/solid interface of a fiber optic sensor) to measure the rate of binding of molecules to the biosensor surface. MEC-1 cells membrane preparation is biotinylated with the EZ-Link NHS-PEG4-Biotin kit from Thermo-Scientific and excess biotin is removed using desalting column from Thermo-Scientific. Biotinylated membranes are then loaded onto SuperStreptavidin (SSA) biosensors (Pall FortéBio Corp.) at empirically determined concentrations. […] Typically, the biosensors were pre-equilibrated in PBS containing either biotinylated membranes or biocytine 100 μg/mL. Biosensors are then equilibrated in assay buffer for 10 min, brought to baseline in assay buffer for 60 sec. and transferred to wells containing peptide in dose-response (association for 120 sec. and dissociation for 300 sec.). The double reference with either membrane-loaded biosensors without any peptide dose-response or biocytine-loaded biosensors with each peptide dose-response were run in parallel for background signal double subtractions. Binding kinetics were calculated using the FortéBio Data Analysis v8.2 software.
(In BLI a coated tip is dipped into the sample, and binding shifts an interference pattern.)

Another assay has as its system OSU cells. Put plainly: Deaths on OSU cells treated with PKT16 or PKT16-FF (FIG. 4). Type of assay: cell-based. Particulars: 6 hours, control 9.5%. The method, then:
FIG. 4: compares deaths on OSU cells treated with PKT16 or PKT16-FF. For PKT16, it can be seen that the reported deaths are of 11.1, 17.9 and 52.7% for concentrations of 25 μM, 50 μM and 100 μM respectively. For PKT16-FF, it can be seen that the reported deaths are of 16.6, 38.3 and 82.4% for concentrations of 25 μM, 50 μM and 100 μM respectively. The control test provided 9.5% death of the cells.
It was synthesized using common solide phase peptide synthesis technics as mentioned above.

For assay [2], the system named is B CLL cells that have the C481S mutation BTK gene. In words: Sensitivity of ibrutinib-resistant B CLL cells to PKT16. Type of assay: cell-based. Conditions: resistance to Ibrutinib.
In another assay the test system is CLL cells. Put plainly: Cell death (Annexin-V and PI co-positivity) in CLL cells (FIG. 2). Particulars: 6 h. Type of assay: cell-based. As to the method:
FIG. 2A: cell death, measured as Annexin-V and PI co-positivity, was assessed leukemic cells treated 6 h with different concentrations of PKT16 or PKHB1. The data in the plot are the mean±s.d. (n=5). FIG. 2B: cell death induced by PKT16 (100 μM, 6 h) was measured in B-cells from twenty healthy donors and forty CLL patients. The percentages refer to the mean of the Annexin-V/PI-positive staining

T1 sequence (Q08722 19-323): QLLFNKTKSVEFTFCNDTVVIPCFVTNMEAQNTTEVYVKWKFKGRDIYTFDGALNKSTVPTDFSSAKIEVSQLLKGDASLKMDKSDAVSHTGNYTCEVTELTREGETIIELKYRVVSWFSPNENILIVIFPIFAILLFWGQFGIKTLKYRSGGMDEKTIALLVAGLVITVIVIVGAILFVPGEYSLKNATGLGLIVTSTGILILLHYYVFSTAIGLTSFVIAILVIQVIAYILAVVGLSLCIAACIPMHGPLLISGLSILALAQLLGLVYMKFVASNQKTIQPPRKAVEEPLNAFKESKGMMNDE

As for `CCCC[C@H](NC(=O)[C@@H](NC(=O)[C@@H](NC(=O)[C@H](Cc1ccc(O)cc1)NC(=O)[C@H](Cc1ccccc1)NC(=O)[C@H](CCCNC(=N)N)N(C)C(=O)[C@H](N)CCCCN)C(C)C)C(C)C)C(=O)N[C@@H](Cc1c[nH]c2ccccc12)C(=O)N[C@@H](CCCCN)C(=O)N[C@H](CCCCN)C(=O)O` [PKT16, H-(D)K ψ(CONMe)R F Y V V X W K (D)K-OH] (H-[dK][NMeR]FYVV[Nle]WK[dK]-OH), the “Cell Death (MEC-1, 2 h)” value in the assay with MEC-1 cells came out at 68%. Moreover, the Kd in assay [1] amounted to 74 µM. Moreover, the “deaths on OSU cells” value in the assay with OSU cells (25 μM) came to 11.1%; with OSU cells (50 μM), 17.9%; in the assay on OSU cells (100 μM) it was 52.7%. Also, in assay [2], the “sensitivity to treatment with PKT16” value is “sensitive”. Further, the “PCD activity relative to PKHB1” value with CLL cells is recorded as “improved PCD activity”.

Source of the values: US11759496B2, “Compounds and pharmaceutical use thereof in the treatment of cancer” (priority 2016, dated 2023).
